Where “and” joins values, the source holds several entries; their conditions need not be identical. Identical values can stand only once.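 Tested at 5 concentrations; 48 h exposure; 96-well plates; endpoints linearly interpolated, else capped at highest concentration. GI50 marks 50% less growth. TGI marks complete inhibition of growth.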

Holding throughout (test): NCI tumour cell line growth inhibition, 48 h
Experiment [1] has as its system DMS 114 small cell lung.
For experiment [2], the system named is DMS 273 small cell lung.
Experiment [3] has as its system HOP-18 NSCLC.
For experiment [4], the system named is KM20L2 colon.
The subject of experiment [5] is LXFL 529 NSCLC.
The test system of experiment [6] is RXF-631 renal.
The subject of experiment [7] is XF 498 CNS.
The subject of experiment [8] is SNB-78 CNS.
Experiment [9] has as its system MDA-N.
In experiment [10] the test system is P388 leukemia.
The test system of experiment [11] is P388/ADR leukemia.
Experiment [12] relates to SN12K1 renal.

Take `c1ccc(COc2cccc3ccc[n+](Cc4ccccc4)c23)cc1`: the TGI in experiment [1] is 14.6 µM; in [2], 17.7 µM; in experiment [3] it was 15.4 µM; in [4] it was 93.8 µM; in [5], 20.3 µM; in experiment [6], > 100 µM. The compound further displayed a TGI in [7] of 31.4 µM.
Consider `[Cl-].[La+3].[O-]/N=C(\c1ccccc1)c1ccccn1.[O-]/N=C(\c1ccccc1)c1ccccn1.[O-]/N=C(\c1ccccc1)c1ccccn1`, for which the GI50 in experiment [1] was 30.8 µM; in [2] it was 31.3 µM; in experiment [3], 31.3 µM; in [4] it was 46.2 µM; in experiment [5] it was 60.3 µM; in [8] it was > 90.8 µM. Further, the TGI in experiment [1], in experiment [2], in experiment [3], in experiment [4], in experiment [5] and in experiment [8] was > 100 µM throughout.
As for `Cn1c2ccccc2c2cc(-c3ccccc3)c3c(c21)C(=O)c1ccccc1C3=O`, the TGI in experiment [1] was 33.6 µM; in [2], 44.9 µM; in experiment [5], 29.3 µM; in experiment [6], > 100 µM; in [8], 54.3 µM; in experiment [7], 39.7 µM.
As for `N=Nc1c(OC(=O)Nc2cccc(Cl)c2)[nH]c2ccccc12`, in experiment [9], the TGI stood at 10.1 µM.
As to `COc1c(Cl)c(=O)oc2ccc(Cl)cc12`, the TGI in experiment [9] is > 100 µM.
`CC(C)OP(=O)(OC(C)C)C(=NCCN=C(NNc1ccc([N+](=O)[O-])cc1)P(=O)(OC(C)C)OC(C)C)NNc1ccc([N+](=O)[O-])cc1`: the TGI in [1] was > 100 µM; in experiment [2] it was > 100 µM; in experiment [4], > 100 µM; in [5] it was > 100 µM; in experiment [7] it was 9.04 µM.
Compound `NC1(C(=O)OCc2ccccc2)CCCC1` registered a TGI in experiment [9] of 49.6 µM.
Take `O=[N+]([O-])C(/C=C(\Cl)n1nnc2ccccc21)=C(/Cl)n1nnc2ccccc21`: the TGI in [9] is > 100 µM.
`Cc1ccc(NC(=O)c2cc3cc(N=Nc4ccccc4C(=O)O)ccc3oc2=O)cc1`: the TGI in experiment [1] was 94.3 µM; in experiment [2], > 100 µM; in experiment [3], > 100 µM; in [4] it was > 100 µM; in experiment [7], 85.8 µM.
Turning to `O=S1(=O)OCCOS(=O)(=O)C1Br`, the TGI in experiment [1], in [2], in [5], in experiment [6] and in [8] was > 100 µM each time.
As to `Cc1ccc(S(=O)(=O)Nc2ccccc2C(=O)c2ccc(C)c(C)c2)cc1`, the TGI in experiment [9] was > 100 µM.
Turning to `CN(C)CCSC1=Nc2ccc(Cl)cc2C(c2ccccc2Cl)=NC1`, in experiment [9], the GI50 is 11.8 µM and 25.1 µM; the TGI is 25.8 µM and 89.1 µM.
As for `Nc1ncnc2c1nnn2C1OC(CO)C(O)C1O` (configuration not stated), the TGI in [1] is 17.1 µM; in experiment [2], 13.6 µM; in experiment [3], 11.8 µM; in [4], > 74.3 µM; in [10], 16.1 µM; in experiment [11] it was 26.7 µM. In addition, the TGI in experiment [12] was 9.58 µM; in experiment [8], > 100 µM; in experiment [7] it was 47.3 µM.
Turning to `CC(=O)OC1COC(n2ccc3cc(Br)c([N+](=O)[O-])cc32)C(OC(C)=O)C1OC(C)=O` (configuration not stated), the TGI is 94.1 µM in experiment [1]; > 100 µM in [2]; > 100 µM in experiment [4]; > 100 µM in experiment [5]; 58.8 µM in experiment [6]; 84.6 µM in [8]. Further, in experiment [7], the TGI stood at 30.5 µM.
Regarding `COc1cc(NCc2ccc3oc(=O)c(-c4ccccc4)nc3c2)cc(OC)c1OC`, the TGI in experiment [9] was > 10 µM.
With `CN(C)c1ccc(/C=C(\NC(=O)c2ccccc2)c2nc3ncncc3[nH]2)cc1`, the TGI in experiment [1], in [4], in [5], in experiment [6], in experiment [8] and in [7] was > 100 µM in each case.
With `COc1cc2c(c(OC)c1OC)-c1ccc(OC)c(=O)cc1C(NC(=O)c1ccc(N=[N+]=[N-])cc1)CC2` (configuration not stated), the TGI in [1] is 0.0656 µM; in experiment [3], > 100 µM; in experiment [4], 0.0351 µM; in [5], > 47.2 µM; in [8], > 100 µM.
In experiment [9], `COc1cc(C2c3cc4c(cc3OC(C)(O)C2C)OCO4)cc(OC)c1OC` (configuration not stated) had a TGI of 0.258 µM.
Take `CCCCCCN(CCCCCC)C(=O)Cc1c2n(c3ccccc13)Cc1ccccc1-2`: the TGI in experiment [1] was 82 µM; in experiment [2], > 100 µM; in [3], > 100 µM; in experiment [4], > 100 µM; in [5], > 100 µM; in experiment [8] it was > 100 µM.
`CC(=O)/C(=C\c1cccc([N+](=O)[O-])c1)C(=O)Nc1ccccc1C`: the TGI in experiment [1], in experiment [3], in [4], in [5], in experiment [8] and in [7] was > 100 µM each time.
Turning to `CN(C)c1nc(=Nc2ccc(N=c3nc(N(C)C)ss3)cc2)ss1`, the TGI was 38.1 µM in experiment [1]; > 64 µM in [2]; > 100 µM in experiment [3]; > 100 µM in [4]; > 52.1 µM in [5]; 38.8 µM in [6]. Moreover, the TGI in [8] amounted to 38.5 µM.
Regarding `COC(=O)C1=C(C)NC(C)=C(C(=O)OCCCN2CCC(c3ccccc3)(c3ccccc3)CC2)C1c1cccc([N+](=O)[O-])c1` (configuration not stated), in [9], the TGI is 3.89 µM.
Consider `COC(OC)C(C)CC(=O)N(C)C` (configuration not stated), for which the TGI in experiment [1], in experiment [2], in experiment [4], in experiment [5], in experiment [8] and in [7] was > 100 µM in each case.

For the origin of these results see PubChem BioAssay (NCI).
